From the supplement of paper PMC13380429

Experiments:
Conditions in all cases: 72 h
[1] = tested on: Caco-2; assay: cell viability relative to DMSO; higher = less toxic
[2] = tested on: Calu-3; assay: as above
[3] = tested on: HepG2; assay: as above
[4] = tested on: U2OS; assay: as above
[5] = tested on: Vero E6; assay: as above
[6] = tested on: Caco-2; assay: relative viability EC50 (midpoint between 100% and the lowest measured viability); higher = less toxic
[7] = tested on: HepG2; assay: as above
[8] = tested on: U2OS; assay: as above
[9] = tested on: Caco-2; assay: drug sensitivity score (DSS) for viability; higher = more toxic; extreme values may be limits of the assay
[10] = tested on: Calu-3; assay: as above
[11] = tested on: HepG2; assay: as above
[12] = tested on: U2OS; assay: as above
[13] = tested on: Vero E6; assay: as above
[14] = tested on: Calu-3; assay: relative viability EC50 (midpoint between 100% and the lowest measured viability); higher = less toxic
[15] = tested on: Vero E6; assay: as above

SMILES | cell viability ([1]; 1 nM) [%] | cell viability ([1]; 10 nM) [%] | cell viability ([1]; 100 nM) [%] | cell viability ([1]; 1000 nM) [%] | cell viability ([1]; 10000 nM) [%] | cell viability ([2]; 1 nM) [%] | cell viability ([2]; 10 nM) [%] | cell viability ([2]; 100 nM) [%] | cell viability ([2]; 1000 nM) [%] | cell viability ([2]; 10000 nM) [%] | cell viability ([3]; 1 nM) [%] | cell viability ([3]; 10 nM) [%] | cell viability ([3]; 100 nM) [%] | cell viability ([3]; 1000 nM) [%] | cell viability ([3]; 10000 nM) [%] | cell viability ([4]; 1 nM) [%] | cell viability ([4]; 10 nM) [%] | cell viability ([4]; 100 nM) [%] | cell viability ([4]; 1000 nM) [%] | cell viability ([4]; 10000 nM) [%] | cell viability ([5]; 1 nM) [%] | cell viability ([5]; 10 nM) [%] | cell viability ([5]; 100 nM) [%] | cell viability ([5]; 1000 nM) [%] | cell viability ([5]; 10000 nM) [%] | relative viability EC50 [6] [µM] | relative viability EC50 [7] [nM] | relative viability EC50 [8] [µM] | drug sensitivity score [9] | drug sensitivity score [10] | drug sensitivity score [11] | drug sensitivity score [12] | drug sensitivity score [13] | relative viability EC50 [14] [µM] | relative viability EC50 [15] [µM]
Nc1nc(=O)n([C@H]2C[C@H](O)[C@@H](CO)O2)cc1F [fdcyd] | 93.4 | 106 | 94.9 | 113 | 86.1 | 85.1 | 108 | 84.1 | 85.5 | 68.3 | 117 | 89.8 | 60.1 | 55.2 | 49.8 | 102 | 106 | 95.8 | 104 | 86.2 | 99.3 | 105 | 90.7 | 66.4 | 54.9 | > 10 | 34.6 | > 10 | 0.1 | 3.4 | 14.8 | 0.1 | 7 | – | –
COC(=O)[C@H](CC(C)C)NC(=O)[C@@H](N)CC(C)C [leucylleucine-methyl-ester] | 98.1 | 102 | 94.5 | 104 | 103 | 98.1 | 107 | 86.9 | 99.6 | 98.5 | – | – | – | – | – | – | – | – | – | – | – | – | – | – | – | > 10 | – | – | 0 | 0 | – | – | – | > 10 | –
COc1ccc(C(=O)c2ccccc2)c(O)c1 [oxybenzone] | 99.6 | 94.4 | 98.9 | 101 | 97.8 | – | – | – | – | – | 112 | 112 | 98.9 | 114 | 103 | 103 | 103 | 101 | 98.2 | 100 | – | – | – | – | – | > 10 | > 10000 | > 10 | 0 | – | 0 | 0 | – | – | –
CCCC(C)C1(CC)C(=O)NC(=O)NC1=O (centres undefined) [pentobarbital] | 94.8 | 90.8 | 88.3 | 89.1 | 93.9 | 106 | 90.3 | 109 | 107 | 94.1 | – | – | – | – | – | 104 | 97.1 | 99.7 | 93.9 | 99.1 | 102 | 94.4 | 96.5 | 106 | 100 | > 10 | – | > 10 | 0.8 | 0 | – | 0 | 0 | > 10 | > 10
C[C@]12CC[C@H](O)C[C@H]1CC[C@@H]1[C@@H]2CC[C@]2(C)[C@@H](c3ccc(=O)oc3)C[C@H]3O[C@]132 [resibufogenin] | 96.3 | 98.8 | 106 | 94.7 | 25.1 | 102 | 94.8 | 106 | 99.4 | 45.7 | 115 | 100 | 109 | 90.5 | 63.6 | 97 | 104 | 98.9 | 101 | 6.5 | 106 | 101 | 102 | 11.3 | 2.1 | 2.59 | – | 3.23 | 4.9 | 3 | 3.2 | 5.1 | 16 | 3.09 | 0.426
C=C[C@]1(C)C[C@@H](OC(=O)CS[C@@H]2C[C@H]3CC[C@@H](C2)N3C)[C@]2(C)[C@H](C)CC[C@]3(CCC(=O)[C@H]32)[C@@H](C)[C@@H]1O [retapamulin] | 94.7 | 98.2 | 112 | 92.8 | 98.8 | 107 | 98.5 | 104 | 98.2 | 97.8 | 96.9 | 101 | 89.4 | 85.9 | 74 | 103 | 98.4 | 102 | 101 | 99.1 | 94.9 | 101 | 90.4 | 93.9 | 91.5 | > 10 | – | > 10 | 0 | 0 | 2.6 | 0 | 0 | > 10 | > 10
C#CCN(C)[C@H](C)Cc1ccccc1 [selegiline] | – | – | – | – | – | – | – | – | – | – | – | – | – | – | – | – | – | – | – | – | – | – | – | – | – | – | – | – | – | 0 | 0 | 0 | 0 | – | –
O=C(NN1C(=O)[C@@H]2[C@@H]3C=C[C@@H]([C@H]4C[C@@H]34)[C@@H]2C1=O)c1ccc(C(F)(F)F)cc1 [tecovirimat] | 109 | 104 | 105 | 101 | 94.2 | 99.7 | 90.3 | 103 | 98.8 | 100 | – | – | – | – | – | 107 | 107 | 107 | 99.6 | 104 | 98.5 | 104 | 93 | 95.3 | 101 | > 10 | – | > 10 | 0 | 0 | – | 0 | 0 | > 10 | > 10
Cc1ccc(S(=O)(=O)NC(=O)NN2CCCCCC2)cc1 [tolazamide] | 95.6 | 95 | 102 | 93.8 | 89.7 | 92.2 | 96.2 | 88 | 79.5 | 93.3 | – | – | – | – | – | 100 | 97 | 97 | 99.2 | 103 | 98.9 | 86.3 | 95.5 | 98.3 | 107 | > 10 | – | > 10 | 0 | 0 | – | 0 | 0 | > 10 | > 10
